From PMC12501849, “Design, synthesis and evaluation of arylpurine-based sinefungin mimetics as zika virus methyltransferase inhibitors” (RSC Advances, 2025)
“Also recorded” adds a separate entry of the source.

Columns and labels:
ZIKV = experiment: Antiviral assay against ZIKV in VeroE6 cells (CPE, MTS readout); assay type: cell-based, zika virus; details: for EC50: Zika virus, Vero C1008, VeroE6 cells, concentration that protects 50% of the cells from virus-induced cytopathic effect
Method: (§1) These compounds were next evaluated for their antiviral effect on ZIKV replication in Vero E6 and SH-SY5Y cells. 7-Deaza-2′-C-methyladenosine (7DMA), a viral polymerase inhibitor,[35] was included as a positive control.
(§2) Assessment of the antiviral activity against ZIKV in VeroE6 cells (African green monkey kidney cells; Vero 76, clone E6; ATCC: Cat# CRL-1586) was done as previously described.[35] The antiviral assays in the neuroblastoma SH-SY5Y cells (CRL-2266; ATCC) were conducted as follows: SH-SY5Y cells were seeded in assay medium (MEM supplemented with 2% fetal bovine serum, 2 mM L-glutamine and 0.075% sodium bicarbonate; all from Thermo Fisher Scientific) at a density of 15 000 cells/well in 96-well plates. Cells were incubated overnight at 37 °C and 5% CO2. The next day, a serial dilution of the compounds was added to the cells, followed by inoculation of the cells with ZIKV MR766 (MOI = 0.01). Following a 7-day incubation at 37 °C and 5% CO2, ZIKV-induced cytopathic effect was determined by means of the MTS readout method, analogous to the assay with the VeroE6 cells.[35] The 50% effective concentration (the compound concentration that is required to inhibit virus-induced CPE by 50%; EC50) and the 50% cytotoxic concentration (i.e. the compound concentration that is required to inhibit the cell growth by 50%; CC50) was determined using logarithmic interpolation.

[1] = Cytotoxicity in non-infected VeroE6 cells; assay type: cell-based, African green monkey; details: African green monkey, non-infected, 50% cytotoxic concentration
Method: as §2

ZIKV MR766 = experiment: Antiviral assay against ZIKV in SH-SY5Y cells (CPE, MTS readout); assay type: cell-based, zika virus; details: Zika virus, 168 h; SH-SY5Y cells; ZIKV MR766, MOI 0.01, 7-day incubation
Method: as §1
Besides the standard assays in VeroE6 cells, the compounds were also tested in SH-SY5Y cells. […] Thus, they function as a relevant neuronal cell-based model of ZIKV infection.[38]
as §2

[2] = Cytotoxicity in non-infected SH-SY5Y cells; assay type: cell-based; details: human, SH-SY5Y neuroblastoma cells, 50% cytotoxic concentration
Method: as §2

ZIKV MTase = target: T1, ZIKV MTase (Zika virus, UniProt A0A024B7W1); experiment: Filter binding assay (FBA), ZIKV 2′-O-MTase activity; assay type: biochemical; details: for inhibition at 50 µM: 2′-O-MTase activity, compound at 50 μM, read-out: Percentage of inhibition of ZIKV MTase; for Effect on 2′-O-MTase activity of ZIKV (in words): tested at 50 μM
T1 construct: the ZIKV NS5 MTase (aa 4-278) domain were synthesized (Genscript); His6 (N); made in house; host or cells: Escherichia coli T7 Express Iq
Method: (§3) The synthesized arylpurines were evaluated for their inhibitory activity against the 2′-O-MTase activity of ZIKV and DENV3 MTases by quantification of [^3H]-methyl transfer from the [^3H]-SAM on short synthetic capped RNA (GpppAC4), by using a filter binding assay (FBA).[13,33] The universal methyltransferase inhibitor sinefungin was included as a positive control (Table 1), whose IC50 value against ZIKV MTase has already been reported using a similar assay.[13] We assessed MTase inhibition by testing the synthesized compounds at a concentration of 50 μM.
(§4) Proteins were produced and purified as previously described.[13] Briefly, the coding sequence of ZIKV NS5 (aa 4-903) and the ZIKV NS5 MTase (aa 4-278) domain were synthesized (Genscript) based on the sequence of the ZIKV strain H/PF/2013 (GenBank accession no. KJ776791.2) and then cloned into a pQE30 (Qiagen) plasmid with an N-terminal His6 tag. The MTase domains (aa 4-278 and aa 1-264) were produced in Escherichia coli T7 Express Iq (New England BioLabs). Cells were grown in Terrific Broth at 37 °C until the optical density at 600 nm (OD600) reached 0.6. Protein expression was then induced by 0.5 mM IPTG (isopropyl-β-D-thiogalactopyranoside) at 17 °C overnight. Bacteria were harvested by centrifugation. The bacterial pellets from a 2-liter bacterial culture were resuspended in 100 ml lysis buffer (50 mM Tris–HCl [pH 8], 300 mM NaCl, 5% glycerol, 0.1% Triton, 10 μg per ml DNase I, 2 tablets of EDTA-free antiprotease cocktail [Roche], 0.25 mg per ml lysozyme). After 30 min of incubation at 4 °C, cells were sonicated and clarified by centrifugation prior to immobilized metal affinity chromatography (IMAC) purification on a 5-mL His prep column (GE Healthcare), with elution in 50 mM Tris–HCl, 300 mM NaCl, and 250 mM imidazole (pH 8.0). The eluted protein was then loaded on a 16/60 Superdex 200 (GE Healthcare) equilibrated in a mixture of 10 mM HEPES, 500 mM NaCl, glycerol 5%, and 1 mM dithiothreitol (DTT [pH 7.5]).
(§5) The FBA MTase assay was carried out in a reaction mixture [40 mM Tris–HCl (pH 8.0), 1 mM DTT, 1.9 μM SAM, and 0.1 μM ^3H-SAM (PerkinElmer)] in the presence of 0.7 μM GpppAC4 synthetic RNA and the MTase (500 nM), according to the method previously described.[39] Briefly, the MTase was first mixed with the compound suspended in DMSO (5% final DMSO) before the addition of RNA substrate and SAM and then incubated at 30 °C. Reactions mixtures were stopped after 30 min by their 10-fold dilution in ice-cold water. Samples were transferred to diethylaminoethyl (DEAE) filtermat (PerkinElmer) using a Filtermat Harvester (Packard Instruments). The RNA-retaining mats were washed twice with 10 mM ammonium formate pH 8.0, twice with water and once with ethanol. They were soaked with scintillation fluid (PerkinElmer), and ^3H-methyl transfer to the RNA substrates was determined using a Wallac MicroBeta TriLux liquid scintillation counter (PerkinElmer).

DENV3 MTase = target: T2, DENV3 MTase (Dengue virus type 3, UniProt P27915); experiment: Filter binding assay (FBA), DENV3 2′-O-MTase activity; assay type: biochemical; details: for inhibition at 50 µM: 2′-O-MTase activity, compound at 50 μM, read-out: Percentage of inhibition of DENV3 MTase; for Effect on 2′-O-MTase activity of DENV3 (in words): tested at 50 μM
T2 construct: the MTase activity is located at the N-terminal of the viral NS5 protein; made in house
Method: as §3, §4, §5

T2 sequence (P27915 2492-2753): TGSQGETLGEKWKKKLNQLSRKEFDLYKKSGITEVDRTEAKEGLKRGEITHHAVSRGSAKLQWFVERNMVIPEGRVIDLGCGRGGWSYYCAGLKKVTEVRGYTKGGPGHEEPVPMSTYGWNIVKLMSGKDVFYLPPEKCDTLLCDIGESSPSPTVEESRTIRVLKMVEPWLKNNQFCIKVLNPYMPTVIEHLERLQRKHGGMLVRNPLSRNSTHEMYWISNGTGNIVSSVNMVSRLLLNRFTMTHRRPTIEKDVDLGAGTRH
T1 sequence (A0A024B7W1 2524-2798): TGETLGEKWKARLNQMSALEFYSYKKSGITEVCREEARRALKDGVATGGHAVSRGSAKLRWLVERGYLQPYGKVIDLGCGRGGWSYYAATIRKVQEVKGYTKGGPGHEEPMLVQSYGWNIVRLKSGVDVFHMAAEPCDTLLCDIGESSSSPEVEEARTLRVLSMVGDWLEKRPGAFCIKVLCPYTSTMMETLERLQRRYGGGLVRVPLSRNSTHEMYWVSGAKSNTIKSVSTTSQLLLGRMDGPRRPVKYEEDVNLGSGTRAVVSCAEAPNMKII

Row | Compound | EC50 (ZIKV) [µM] | CC50 [1] [µM] | EC50 (ZIKV MR766) [µM] | CC50 at 7 days [2] [µM] | inhibition at 50 µM (ZIKV MTase) [%] | Effect on 2′-O-MTase activity of ZIKV (in words) (ZIKV MTase) | inhibition at 50 µM (DENV3 MTase) [%] | Effect on 2′-O-MTase activity of DENV3 (in words) (DENV3 MTase) | Antiviral activity against ZIKV (in words) (ZIKV; cell-based assay)
1 | C[C@@]1(O)[C@H](O)[C@@H](CO)O[C@H]1n1ccc2c(N)ncnc21 [Compound 7DMA, 7-Deaza-2′-C-methyladenosine, reference compound] | 9 ± 0.2 | > 200 | 33.7 ± 5.1 | > 50 | – | – | – | – | –
2 | CC(C)(C)CCN(CC[C@H](N)C(=O)O)c1cccc(-n2cnc3c(N)ncnc32)c1 [Compound 10, (S)-2-Amino-4-((3-(6-amino-9H-purin-9-yl)phenyl)(3,3-dimethylbutyl)amino)butanoic acid] | > 100 | > 100 | > 100 | > 100 | 0 | no effect | 0 | no effect | –
3 | Cc1ncnc2c1ccn2-c1cccc(N(CC[C@H](N)C(=O)O)CCC(C)(C)C)c1 [Compound 14, (S)-2-Amino-4-((3,3-dimethylbutyl)(3-(4-methyl-7H-pyrrolo[2,3-d]pyrimidin-7-yl)phenyl)amino)butanoic acid] | > 100 | > 100 | > 100 | > 100 | 0 | no effect | 0 | no effect | –
4 | Cc1ncnc2c1ccn2-c1cccc(N(CC[C@H](NC(=O)OC(C)(C)C)C(N)=O)CCC(C)(C)C)c1 [Compound 17, tert-Butyl (S)-(1-amino-4-((3,3-dimethylbutyl)(3-(4-methyl-7H-pyrrolo[2,3-d]pyrimidin-7-yl)phenyl)amino)-1-oxobutan-2-yl)carbamate] | > 100 | 22.8 ± 0.5 | > 100 | 7 | 11.1 | modest inhibition | 7.2 | modest inhibition | –
5 | Cc1ncnc2c1ccn2-c1cccc(NC(=O)C[C@H](N)C(=O)OC(C)(C)C)c1 [Compound 20, tert-Butyl N^4-(3-(4-methyl-7H-pyrrolo[2,3-d]pyrimidin-7-yl)phenyl)-L-asparaginate] | > 100 | > 33 | > 100 | > 100 | 0 | no effect | 0 | no effect | –
6 | CC(C)(C)OC(=O)[C@@H](N)CC(=O)Nc1cccc(-n2cnc3c(N)ncnc32)c1 [Compound 29, tert-Butyl N^4-(3-(6-amino-9H-purin-9-yl)phenyl)-L-asparaginate] | > 100 | > 100 | > 100 | > 100 | ~20 | inhibited; also recorded: some inhibition | ~20 | some inhibition | no antiviral activity
7 | COc1ccc(NC(=O)C[C@H](N)C(=O)OC(C)(C)C)cc1-n1cnc2c(N)ncnc21 [Compound 30, tert-Butyl N^4-(3-(6-amino-9H-purin-9-yl)-4-methoxyphenyl)-L-asparaginate] | > 100 | > 100 | > 100 | > 100 | 0 | no effect | 0 | no effect | –
